# Patent publication US20040197777A1, “Polymorphisms of the OCTN1 and OCTN2 cation transporters associated with inflammatory bowel disorders” (priority 2001, published 2004)
# Legend:
# [1] = tested on: HSF1 binding to the OCTN2 promoter; experiment: OCTN2 gel shift assay (EMSA) with HeLa nuclear extracts; format: cell-based, human; settings: nuclear extract of HeLa cells treated with arachidonate; no binding at 37° C. alone
# Procedure: For OCTN2 gel shift assays, human HeLa cells were grown in D-MEM supplemented with 10% fetal bovine serum, 2 mm […], 100 U/ml penicillin, and 100 μg/ml streptomycin at 37° C. in T-75 tissue culture flasks (Sarstedt). Heat-shocked cells were prepared by incubating the flasks in tissue culture incubator at 42° C. for 3 hr. For arachidonate experiment, the day before, the HeLa cells were starved over night with in serum-free D-MEM. The next day cells were washed twice with PBS. Cells were treated then with for 30 min with […] arachidonate at 37° C. The working concentrations were prepared from sodium arachidonate (Sigma) and stored in cold absolute ethanol as a 100 mM stock solution. Control cells were treated with an equivalent concentration of ethanol. Nuclear extracts were prepared by NP-40 based fractionation. This procedure is a modification of the procedure described by Baler R, Dahl G & Voellmy R, Mol. Cell. Biol. 13: 2486-2496 (1993). […] The protein concentration of the extracts was measured using the Bradford assay (Bio-Rad). […]
# The reaction products were separated electrophoretically on 4% polyacrylamide gel for 3 h at 200 V, dried and exposed to film and detected by autoradiography.
# OCTN2 promoter = experiment: OCTN2 luciferase promoter assay; format: cell-based, human; settings: HeLa cells, 20 μM arachidonic acid at 37° C.; FIG. 2
# Source text: For the OCTN2 luciferase promoter assays, a Dual-Luciferase Reporter Assay System (Promega) was used to study the effect of the mutation on the OCTN2 promoter region. The OCTN2-promoter luciferase reporter gene constructs were generated by PCR amplification of approximately 2.7 kb OCTN2-promoter fragments using genomic DNA from a patient homozygous for the G allele as a template and ligation into Bg/II/MluI site of the promoterless luciferase vector pRL-null (Promega) that uses luciferase from Renilla reniformis as a reporter. For PCR primers, two primers, OCTN2-BglII:
# 5′-[…]-3′ (SEQ ID NO:13) and OCTN2-M1uI: 5′-[…]-3′ (SEQ ID NO:14) were used. […]
# To normalize the activity of the experimental reporter, constructs were cotransfected into HeLa cells with 20-fold less firefly luciferase plasmid pGL3-P as an internal control LipofectAMINE PLUS™ Reagent (Invitrogen, La Jolla, Calif., USA) as per the manufacturer's protocol. […] The luminescence from (Renilla luciferase reaction (“experimental” reporter a:) was measured simultaneously with the activity of firefly luciferase (“control” reporter) using Dual-Luciferase Reporter Assay System (Promega). The instrumentation used was a manual luminometer (Lumat LB 9501, Berthold). The cells transfected with empty vector under similar conditions served as control. All assays were carried out in triplicate.
# vascular inflammation = settings: various models of vascular inflammation in rodents; cited from earlier work
# Ulcerative Colitis = settings: topical irrigation of the colon; cited from earlier work
# OCTN1 [2] = experiment: OCTN1 transporter assay: uptake of radiolabeled carnitine by cells transfected with OCTN1 L503 or L503F; format: cell-based, human
# Procedure: Transient expression of OCTN1 (transporter assays) and OCT2 (luciferase promoter assays). For transient expression of wild-type or mutant (L503F; SEQ ID NO:7), HeLa cells were plated out at a density […] cells/dish in 100-mm plastic culture dishes (Falcon) and carnitine deficient human fibroblasts, (GM 10665) were plated out at a density 2.5×10^5 cells/well in 6-well plastic culture dishes (Falcon) 24 hr prior transfection with LipofectAMINE PLUS™ Reagent (Invitrogen, La Jolla, Calif., USA) as recommended by the manufacturer.
# For HeLa cell culture, human HeLa cells were grown in D-MEM supplemented with 10% fetal bovine serum, 2 mM L-glutamine, 100 U/ml penicillin, and 100 μg/ml streptomycin. […]
# For the OCTN1 transporter assays, carnitine transport measurements were made at room temperature using L-[^3H]carnitine as substrate, (specific activity 81 Ci/mmol, Moravek Biochemicals Inc.). […] The cells were then solubilized with 1× cell culture lysis reagent (Promega), and the associated radioactivity was quantitated in a liquid scintillation counter. Cellular protein content was determined according to the bicinchoninic acid method of Smith P K et al., Anal. Biochem. 150: 76-85 (1985), using BCA standard protein assay reagent kit (Pierce). […] The luciferase activity was measured on manual luminometer (Lumat LB 9501, Berthold). […]
# OCTN1 [3] = settings: transfected Phoenix mouse fibroblast cells, 37° C.; FIG. 4
# Procedure: Transfected Phoenix mouse fibroblast cells were loaded with ^14C-labeled TEA for 30 min. at 37° C., washed twice in cold transport buffer, and then resuspended in transport medium. Efflux was initiated at 37° C. and measured at 0, 4, 8, 12 and 30 minutes. Measurements were taken by washing twice in cold transport buffer, solubilizing with 1× cell culture lysis reagent (Promega) and quantifying the 14C retention from 150 μL aliquots. Cellular protein content was determined according to the BCA method. For sodium-free experiments, cells were suspended in medium with sodium replaced isotonically with N-methyl-D-glucamine.
smiles,measurement,setting,value
CCCCC/C=C\C/C=C\C/C=C\C/C=C\CCCC(=O)O [arachidonic acid],binding of nuclear factor (HSF1) to oligonucleotide with wild-type G allele of OCTN2 promoter,[1],induced
same,decreased expression of luciferase construct with C allele of G-207C compared to the arachidonate-induced level,OCTN2 promoter,3.3 fold
"CCC(=O)O[C@H](CC(=O)[O-])C[N+](C)(C)C [PLC, propyonil-L-carnitine]",effect on inflammation,vascular inflammation,inhibits inflammation
same,effect on symptoms of Ulcerative Colitis,Ulcerative Colitis,improve some symptoms of Ulcerative Colitis
C[N+](C)(C)CC(O)CC(=O)[O-] (stereo not shown) [carnitine],"reduction toward vector baseline in uptake of radiolabeled carnitine, L503F vs leucine allele","OCTN1 [2]; cell line from an individual lacking OCTN2 expression, FIG. 3B",5.2 fold
same,"reduction toward the vector-alone baseline in uptake of radiolabeled carnitine, phenylalanine allele (L503F) vs leucine allele","OCTN1 [2]; transient transfection into HeLa cells, FIG. 3A",3.6 fold
"CC[N+](CC)(CC)CC [TEA, tetraethyl ammonium]",efflux of radiolabeled TEA by phenylalanine (L503F) variant of OCTN1 compared with leucine variant (L503),OCTN1 [3],significant decrease in efflux
